Results on one molecule are retold here after patent publication US8410178B2, “CIS 3,4-dihydroxy-2-(3-methylbutanoyl)-5-(3-methylbutyl)-4-(4-methylpentanoyl)cyclopent-2-en-1-derivatives, substantially enantiomerically pure compositions and methods” (KinDex Therapeutics, LLC, priority 2010, dated 2013).

For one assay, the target named is T1, PPARγ (Homo sapiens, UniProt P37231).
T1 sequence (P37231 1-505): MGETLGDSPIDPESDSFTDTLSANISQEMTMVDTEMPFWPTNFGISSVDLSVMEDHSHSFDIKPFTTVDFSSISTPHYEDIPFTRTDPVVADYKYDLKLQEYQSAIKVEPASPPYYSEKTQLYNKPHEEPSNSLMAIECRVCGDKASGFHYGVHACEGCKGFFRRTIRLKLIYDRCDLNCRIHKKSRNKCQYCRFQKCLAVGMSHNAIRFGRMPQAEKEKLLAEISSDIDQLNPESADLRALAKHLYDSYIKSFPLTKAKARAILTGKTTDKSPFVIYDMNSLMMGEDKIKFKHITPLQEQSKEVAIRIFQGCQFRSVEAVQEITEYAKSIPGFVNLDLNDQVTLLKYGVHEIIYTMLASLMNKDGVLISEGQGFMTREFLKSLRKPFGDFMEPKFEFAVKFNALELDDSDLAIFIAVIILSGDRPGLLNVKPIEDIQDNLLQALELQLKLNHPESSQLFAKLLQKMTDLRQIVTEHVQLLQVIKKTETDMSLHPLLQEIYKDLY
Kind of assay: PPARγ luciferase reporter assay. It counts as cell-based. The procedure:
The functional effect of (+)-KDT501 on PPARα, PPARδ, and PPARγ activity was evaluated using a PPAR reporter assay (INDIGO Biosciences, PA). This assay utilizes non-human mammalian cells engineered to provide constitutive high level expression of PPARα, PPARδ, or PPARγ and containing a luciferase report gene specific to the appropriate PPAR. Following activation by agonist binding, PPAR induces expression of the luciferase reporter gene. Luciferase activity therefore provides a surrogate for measuring PPAR activity in agonist-treated cells.
Reporter cells were plated on a 96-well plate at 100 μL per well, and 100 μL of (+)-KDT501 at various final concentrations (25, 12.5, 6.25, 3.125, 1.56 and 0.78 μM) was added to each well. […] 0.1% DMSO was also used as a negative control for each assay. Plates are incubated for 20 hours in a humidified incubator at 37° C. and 5% CO2. After incubation, cell medium was discarded and the cells were treated with 100 μL of luciferase detection reagent for 15 minutes. Plates were analyzed using a luminometer (Victor2, Perkin Elmer). Average relative light unit (RLU) and standard deviation were analyzed using GraphPad Prism.
The PPAR activity assays were repeated as described above using both (+)-KDT501(12.5, 6.25, 3.125, 1.56, and 0.78 μM) and (−)-KDT501 (25, 12.5, 6.25, 3.125, 1.56, and 0.78 μM).
A general note: In a reporter assay the amount or activity of a reporter protein is the signal.

Assay [1] deals with rheumatoid arthritis synovial fibroblasts (RASF). Kind of assay: IL-1β-mediated inflammatory factors in RASFs. It counts as cell-based, Human. As to conditions: IL-1β-induced, 50, 25, 12.5, and 6.25 μM. The procedure:
The anti-inflammatory effect of (+)-KDT501 was evaluated in rheumatoid arthritis synovial fibroblasts (RASF).
Human RASF cells (Asterand, Detroit, Mich.) were cultured and maintained in DMEM/F12 (1:1) medium in the presence of 10% fetal bovine serum. Cells were subcultured in 24-well plates at a density of 1×10^4 cells per well and allowed to reach 70-80% confluence in two days. Confluent cells in serum-free medium at a final concentration of 0.1% DMSO were incubated for one hour with (+)-KDT501 at varying concentrations (50, 25, 12.5, and 6.25 μM), then stimulated with […] (10 ng/ml) for 20-24 hours. MMP-13 levels in the medium were measured using an ELISA kit (GE Healthcare, Piscataway, N.J.), and PGE2 levels were measured using an Immuno Assay Kit (Assay Designs, Ann Arbor, Mich.).

The next assay deals with T2, GPR120 (Homo sapiens, UniProt Q5NUL3).
T2 sequence (Q5NUL3 1-361): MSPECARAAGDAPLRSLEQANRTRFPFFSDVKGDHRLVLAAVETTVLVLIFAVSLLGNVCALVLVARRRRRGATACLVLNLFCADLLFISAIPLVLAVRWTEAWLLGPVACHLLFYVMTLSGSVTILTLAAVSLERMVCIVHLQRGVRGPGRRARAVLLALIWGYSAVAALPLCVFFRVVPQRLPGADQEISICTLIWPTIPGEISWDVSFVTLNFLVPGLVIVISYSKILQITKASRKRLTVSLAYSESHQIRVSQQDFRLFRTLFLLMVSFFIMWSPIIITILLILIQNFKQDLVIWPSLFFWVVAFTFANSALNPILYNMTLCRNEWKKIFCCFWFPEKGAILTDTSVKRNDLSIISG
Kind of assay: GPR120 activity, intracellular calcium response in CHO-K1/GPR120/Gα15 cells. The class given is cell-based. As to conditions: CHO-K1/GPR120/Gα15 cells; calcium response; unit inferred; read-out: GPR120 agonistic activity EC50. How it is done:
GPR120 activity was measured by intracellular calcium response. CHO-K1/GPR120/Gα15 cells were regularly passaged to maintain optimal cell health and cultured in Ham's F12 supplemented with 10% fetal bovine serum, 200 μg/mL zeocin, and 100 μg/mL hygromycin. Cells were seeded in a 384-well black-wall, clear-bottom plate at a density of 20,000 cell per well in 20 μL of growth medium 18 hours prior to the start of the experiment, and maintained at 37° C./5% CO2. Cells were loaded with calcium-4, and baseline fluorescence readings were obtained from 1 second to 20 seconds using a fluorescent imaging plate reader (FLIPR). At 20 seconds, (+)-KDT501 (5× final concentration) was added to the reading plate, and the fluorescence signal was monitored for 100 seconds (21 seconds to 120 seconds). α-linolenic acid (LA), eicosapentaenoic acid (EPA), and docosahexaenoic acid (DHA) were used as controls. Data acquisition and analysis was performed using ScreenWorks (version 3.1) and exported to Excel. The average fluorescence value for the first 20 seconds was calculated as the baseline reading. The relative fluorescent unit (ΔRFU) intensity values were calculated with the maximal fluorescent units (21 s to 120 s), subtracting the baseline reading. Data analysis wizard written by GenScript was used to analyze EC50. Dose response curves of antagonist were fitted using the GraphPad Prism 4 four parameter logistic equation Y=Bottom+(Top−Bottom)/(1+10^((LogIC50−X)*HillSlope)), where X is the logarithm of concentration and Y is response.

For assay [2], the target named is T3, peroxisome proliferator-activated receptor gamma (PPARγ) (Homo sapiens, UniProt P37231).
T3 sequence (P37231 1-505): T1 sequence (P37231 1-505)
Kind of assay: Competitive binding to PPARγ ([3H]rosiglitazone).

As for `CC(C)CCC(=O)[C@@]1(O)C(O)=C(C(=O)CC(C)C)C(=O)[C@@H]1CCC(C)C.[K]` [(+)-KDT501, (+)-(4S,5R)-3,4-dihydroxy-2-(3-methylbutanoyl)-5-(3-methylbutyl)-4-(4-methylpentanoyl)cyclopent-2-en-1-one potassium salt], the “Fold difference in PPARγ reporter activity” value was found to be 3.9 on PPARγ ((+)-KDT501 versus (−)-KDT501 at 3.13 μM), 6.7 at PPARγ ((+)-KDT501 versus (−)-KDT501 at 6.25 μM), 6.8 on PPARγ ((+)-KDT501 versus (−)-KDT501 at 12.5 μM) and 3.2 at PPARγ ((+)-KDT501 versus (−)-KDT501 at 25 μM). In addition, the “PPARγ reporter activity (RLU)” value amounted to 2122 RLU at PPARγ (concentration of test compound 3.13 μM), 6536 RLU on PPARγ (concentration of test compound 6.25 μM), 16451 RLU on PPARγ (concentration of test compound 12.5 μM) and 13419 RLU at PPARγ (concentration of test compound 25 μM). Also, the PPARγ activity entry at PPARγ (reporter cells, 20 hours) is “increased PPARγ activity in a statistically significant manner”. Also, the “expression of MMP-13” value in assay [1] is listed as “inhibited”. The “expression of PGE2” value in assay [1] is reported as “inhibited”. Also, the EC50 (as a rule, the concentration giving half of the maximal effect) on GPR120 was 30.3 µM. In addition, the IC50 (as a rule, the concentration that gives 50% inhibition) in assay [2] is 8.4 µM. In addition, in assay [2], the Ki (commonly the equilibrium dissociation constant of an inhibitor or competing ligand from its target) is 4.5 µM. Besides, the nH in assay [2] (binding target PPARγ, competitor ligand Rosiglitazone) is reported as 1.1.
